Results as given in ChEMBL document CHEMBL3352064, “Synthesis and bioactive evaluation of a novel series of coumarinazoles” (Bioorg Med Chem Lett, 2014).
In brackets after ≈: the same amount, converted by molar mass.

Columns and labels:
[1] = system: Cyberlindnera jadinii; assay: Antimicrobial activity against Candida utilis by two-fold serial dilution technique; format: functional; conditions: Williopsis jadinii
[2] = system: Aspergillus flavus; assay: Antimicrobial activity against Aspergillus flavus by two-fold serial dilution technique; format: functional
[3] = system: Saccharomyces cerevisiae; assay: Antimicrobial activity against Saccharomyces cerevisiae by two-fold serial dilution technique; format: functional
[4] = system: Candida albicans; assay: Antimicrobial activity against Candida albicans by two-fold serial dilution technique; format: functional
[5] = system: Candida; assay: Antimicrobial activity against Candida mycoderma by two-fold serial dilution technique; format: functional
[6] = system: Micrococcus luteus; assay: Antimicrobial activity against Micrococcus luteus ATCC 4698 by two-fold serial dilution technique; format: functional
[7] = system: Staphylococcus aureus; assay: Antimicrobial activity against methicillin-resistant Staphylococcus aureus N315 by two-fold serial dilution technique; format: functional
[8] = system: Pseudomonas aeruginosa; assay: Antimicrobial activity against Pseudomonas aeruginosa by two-fold serial dilution technique; format: functional
[9] = system: Bacillus subtilis; assay: Antimicrobial activity against Bacillus subtilis by two-fold serial dilution technique; format: functional
[10] = system: Shigella dysenteriae; assay: Antimicrobial activity against Shigella dysenteriae by two-fold serial dilution technique; format: functional
[11] = system: Escherichia coli; assay: Antimicrobial activity against Escherichia coli JM109 by two-fold serial dilution technique; format: functional
[12] = n-Octanol-water partition coefficient, log P of the compound after 24 hrs by shake flask method; format: physicochemical

SMILES: Cc1cc(=O)oc2cc(OCC(O)Cn3nnc4ccccc43)c(OCC(O)Cn3nnc4ccccc43)cc12 (stereo not drawn)
- MIC [1]: 16 µg/mL (≈ 29.5 µM)
- MIC [2]: 256 µg/mL (≈ 472 µM)
- MIC [3]: 32 µg/mL (≈ 59 µM)
- MIC [4]: 8 µg/mL (≈ 14.7 µM)
- MIC [5]: 16 µg/mL (≈ 29.5 µM)
- MIC [6]: 16 µg/mL (≈ 29.5 µM)
- MIC [7]: 32 µg/mL (≈ 59 µM)
- MIC [8]: 32 µg/mL (≈ 59 µM)
- MIC [9]: 64 µg/mL (≈ 118 µM)
- MIC [10]: 64 µg/mL (≈ 118 µM)
- MIC [11]: 32 µg/mL (≈ 59 µM)
- logP at 24 h [12]: 0.48

SMILES: Cc1cc2ncn(CC(O)COc3ccc4c(C)cc(=O)oc4c3)c2cc1C (stereo not drawn)
- MIC [1]: 4 µg/mL (≈ 10.6 µM)
- MIC [2]: 128 µg/mL (≈ 338 µM)
- MIC [3]: 32 µg/mL (≈ 84.6 µM)
- MIC [4]: 16 µg/mL (≈ 42.3 µM)
- MIC [5]: 16 µg/mL (≈ 42.3 µM)
- MIC [6]: 128 µg/mL (≈ 338 µM)
- MIC [7]: 64 µg/mL (≈ 169 µM)
- MIC [8]: 64 µg/mL (≈ 169 µM)
- MIC [9]: 128 µg/mL (≈ 338 µM)
- MIC [10]: 64 µg/mL (≈ 169 µM)
- MIC [11]: 128 µg/mL (≈ 338 µM)
- logP at 24 h [12]: 0.61

SMILES: Cc1cc(=O)oc2cc(OCC(O)CSc3nc4ccccc4[nH]3)c(OCC(O)CSc3nc4ccccc4[nH]3)cc12 (stereo not drawn)
- MIC [1]: 2 µg/mL (≈ 3.31 µM)
- MIC [2]: 64 µg/mL (≈ 106 µM)
- MIC [3]: 16 µg/mL (≈ 26.5 µM)
- MIC [4]: 8 µg/mL (≈ 13.2 µM)
- MIC [5]: 16 µg/mL (≈ 26.5 µM)
- MIC [6]: 32 µg/mL (≈ 52.9 µM)
- MIC [7]: 64 µg/mL (≈ 106 µM)
- MIC [8]: 16 µg/mL (≈ 26.5 µM)
- MIC [9]: 64 µg/mL (≈ 106 µM)
- MIC [10]: 32 µg/mL (≈ 52.9 µM)
- MIC [11]: 0.5 µg/mL (≈ 0.827 µM)
- logP at 24 h [12]: 0.58

SMILES: Cc1cc(=O)oc2cc(OCC(O)Cn3nnc4ccccc43)ccc12 (stereo not drawn)
- MIC [1]: 16 µg/mL (≈ 45.5 µM)
- MIC [2]: 256 µg/mL (≈ 729 µM)
- MIC [3]: 8 µg/mL (≈ 22.8 µM)
- MIC [4]: 4 µg/mL (≈ 11.4 µM)
- MIC [5]: 16 µg/mL (≈ 45.5 µM)
- MIC [6]: 32 µg/mL (≈ 91.1 µM)
- MIC [7]: 16 µg/mL (≈ 45.5 µM)
- MIC [8]: 32 µg/mL (≈ 91.1 µM)
- MIC [9]: 16 µg/mL (≈ 45.5 µM)
- MIC [10]: 64 µg/mL (≈ 182 µM)
- MIC [11]: 16 µg/mL (≈ 45.5 µM)
- logP at 24 h [12]: 0.6

SMILES: Cc1cc(=O)oc2cc(OCC(O)Cn3cncn3)ccc12 (stereo not drawn)
- MIC [1]: 4 µg/mL (≈ 13.3 µM)
- MIC [2]: 6 µg/mL (≈ 19.9 µM)
- MIC [3]: 32 µg/mL (≈ 106 µM)
- MIC [4]: 4 µg/mL (≈ 13.3 µM)
- MIC [5]: 16 µg/mL (≈ 53.1 µM)
- MIC [6]: 16 µg/mL (≈ 53.1 µM)
- MIC [7]: 32 µg/mL (≈ 106 µM)
- MIC [8]: 4 µg/mL (≈ 13.3 µM)
- MIC [9]: 32 µg/mL (≈ 106 µM)
- MIC [10]: 32 µg/mL (≈ 106 µM)
- MIC [11]: 64 µg/mL (≈ 212 µM)
- logP at 24 h [12]: 0.45

SMILES: CCn1cc(C(=O)O)c(=O)c2cc(F)c(N3CCNCC3)cc21 [NORFLOXACIN]
- MIC [6]: 2 µg/mL (≈ 6.26 µM)
- MIC [7]: 8 µg/mL (≈ 25.1 µM)
- MIC [8]: 1 µg/mL (≈ 3.13 µM)
- MIC [9]: 16 µg/mL (≈ 50.1 µM)
- MIC [10]: 4 µg/mL (≈ 12.5 µM)
- MIC [11]: 16 µg/mL (≈ 50.1 µM)

SMILES: Cc1cc(=O)oc2cc(OCC3CO3)cc(OCC3CO3)c12 (stereo not drawn)
- MIC [1]: 16 µg/mL (≈ 52.6 µM)
- MIC [2]: 16 µg/mL (≈ 52.6 µM)
- MIC [3]: 8 µg/mL (≈ 26.3 µM)
- MIC [4]: 8 µg/mL (≈ 26.3 µM)
- MIC [5]: 8 µg/mL (≈ 26.3 µM)
- MIC [6]: 8 µg/mL (≈ 26.3 µM)
- MIC [7]: 64 µg/mL (≈ 210 µM)
- MIC [8]: 8 µg/mL (≈ 26.3 µM)
- MIC [9]: 4 µg/mL (≈ 13.1 µM)
- MIC [10]: 4 µg/mL (≈ 13.1 µM)
- MIC [11]: 0.5 µg/mL (≈ 1.64 µM)

SMILES: Cc1cc(=O)oc2cc(OCC(O)Cn3cncn3)c(OCC(O)Cn3cncn3)cc12 (stereo not drawn)
- MIC [1]: 4 µg/mL (≈ 9.04 µM)
- MIC [2]: 32 µg/mL (≈ 72.3 µM)
- MIC [3]: 32 µg/mL (≈ 72.3 µM)
- MIC [4]: 1 µg/mL (≈ 2.26 µM)
- MIC [5]: 4 µg/mL (≈ 9.04 µM)
- MIC [6]: 32 µg/mL (≈ 72.3 µM)
- MIC [7]: 8 µg/mL (≈ 18.1 µM)
- MIC [8]: 32 µg/mL (≈ 72.3 µM)
- MIC [9]: 16 µg/mL (≈ 36.2 µM)
- MIC [10]: 16 µg/mL (≈ 36.2 µM)
- MIC [11]: 1 µg/mL (≈ 2.26 µM)
- logP at 24 h [12]: 0.65

SMILES: Cc1cc2ncn(CC(O)COc3cc4oc(=O)cc(C)c4cc3OCC(O)Cn3cnc4cc(C)c(C)cc43)c2cc1C (stereo not drawn)
- MIC [1]: 4 µg/mL (≈ 6.7 µM)
- MIC [2]: 64 µg/mL (≈ 107 µM)
- MIC [3]: 16 µg/mL (≈ 26.8 µM)
- MIC [4]: 16 µg/mL (≈ 26.8 µM)
- MIC [5]: 32 µg/mL (≈ 53.6 µM)
- MIC [6]: 64 µg/mL (≈ 107 µM)
- MIC [7]: 32 µg/mL (≈ 53.6 µM)
- MIC [8]: 16 µg/mL (≈ 26.8 µM)
- MIC [9]: 128 µg/mL (≈ 215 µM)
- MIC [10]: 16 µg/mL (≈ 26.8 µM)
- MIC [11]: 32 µg/mL (≈ 53.6 µM)
- logP at 24 h [12]: 0.61

SMILES: Cc1cc(=O)oc2cc(OCC(O)Cn3cnc4ccccc43)ccc12 (stereo not drawn)
- MIC [1]: 512 µg/mL (≈ 1460 µM)
- MIC [2]: > 512 µg/mL
- MIC [3]: 512 µg/mL (≈ 1460 µM)
- MIC [4]: 128 µg/mL (≈ 365 µM)
- MIC [5]: 128 µg/mL (≈ 365 µM)
- MIC [6]: 512 µg/mL (≈ 1460 µM)
- MIC [7]: 512 µg/mL (≈ 1460 µM)
- MIC [8]: > 512 µg/mL
- MIC [9]: 128 µg/mL (≈ 365 µM)
- MIC [10]: 512 µg/mL (≈ 1460 µM)
- MIC [11]: 128 µg/mL (≈ 365 µM)
- logP at 24 h [12]: 0.55

SMILES: OC(Cn1cncn1)(Cn1cncn1)c1ccc(F)cc1F [FLUCONAZOLE]
- MIC [1]: 8 µg/mL (≈ 26.1 µM)
- MIC [2]: 256 µg/mL (≈ 836 µM)
- MIC [3]: 16 µg/mL (≈ 52.2 µM)
- MIC [4]: 1 µg/mL (≈ 3.27 µM)
- MIC [5]: 4 µg/mL (≈ 13.1 µM)

SMILES: Cc1cc(=O)oc2cc(OCC(O)CSc3nc4ccccc4[nH]3)ccc12 (stereo not drawn)
- MIC [1]: 0.5 µg/mL (≈ 1.31 µM)
- MIC [2]: 16 µg/mL (≈ 41.8 µM)
- MIC [3]: 64 µg/mL (≈ 167 µM)
- MIC [4]: 32 µg/mL (≈ 83.7 µM)
- MIC [5]: 16 µg/mL (≈ 41.8 µM)
- MIC [6]: 16 µg/mL (≈ 41.8 µM)
- MIC [7]: 32 µg/mL (≈ 83.7 µM)
- MIC [8]: 64 µg/mL (≈ 167 µM)
- MIC [9]: 32 µg/mL (≈ 83.7 µM)
- MIC [10]: 64 µg/mL (≈ 167 µM)
- MIC [11]: 0.5 µg/mL (≈ 1.31 µM)
- logP at 24 h [12]: 0.49

SMILES: Cc1cc(=O)oc2cc(OCC3CO3)ccc12 (stereo not drawn)
- MIC [1]: 32 µg/mL (≈ 138 µM)
- MIC [2]: 1 µg/mL (≈ 4.31 µM)
- MIC [3]: 1 µg/mL (≈ 4.31 µM)
- MIC [4]: 16 µg/mL (≈ 68.9 µM)
- MIC [5]: 8 µg/mL (≈ 34.4 µM)
- MIC [6]: 4 µg/mL (≈ 17.2 µM)
- MIC [7]: 128 µg/mL (≈ 551 µM)
- MIC [8]: 8 µg/mL (≈ 34.4 µM)
- MIC [9]: 2 µg/mL (≈ 8.61 µM)
- MIC [10]: 4 µg/mL (≈ 17.2 µM)
- MIC [11]: 0.5 µg/mL (≈ 2.15 µM)

SMILES: Cc1cc(=O)oc2cc(OCC(O)Cn3cnc4ccccc43)c(OCC(O)Cn3cnc4ccccc43)cc12 (stereo not drawn)
- MIC [1]: 512 µg/mL (≈ 947 µM)
- MIC [2]: 512 µg/mL (≈ 947 µM)
- MIC [3]: > 512 µg/mL
- MIC [4]: > 512 µg/mL
- MIC [5]: 64 µg/mL (≈ 118 µM)
- MIC [6]: 128 µg/mL (≈ 237 µM)
- MIC [7]: 512 µg/mL (≈ 947 µM)
- MIC [8]: 128 µg/mL (≈ 237 µM)
- MIC [9]: > 512 µg/mL
- MIC [10]: > 512 µg/mL
- MIC [11]: > 512 µg/mL
- logP at 24 h [12]: 0.49
